pIC50: −log10 of the molar value.
Columns and labels:
[1] = Inhibition of platelet aggregation in heparin treated human platelet rich plasma (PRP)
[2] = Inhibition of platelet aggregation in citreated human platelet rich plasma (PRP)

Row | pIC50 [1] | pIC50 [2] | Structure (SMILES)
1 | 6.62 | 6.93 | CCOP(=O)(NC(CNC(=O)CC1CC(c2ccc(C(=N)N)cc2)=NO1)C(=O)O)OCC (centres undefined) [3-{2-[3-(4-Carbamimidoyl-phenyl)-4,5-dihydro-isoxazol-5-yl]-acetylamino}-2-(diethoxy-phosphorylamino)-propionic acid]
2 | 7.18 | – | [H]/N=C(/N)c1ccc(C2=NO[C@@H](CC(=O)NC[C@H](NC(=O)OCCCC)C(=O)O)C2)cc1
3 | 6.42 | 6.59 | N=C(N)c1ccc(C2=NOC(CC(=O)NCC(NP(=O)(O)O)C(=O)O)C2)cc1 (centres undefined) [3-{2-[3-(4-Carbamimidoyl-phenyl)-4,5-dihydro-isoxazol-5-yl]-acetylamino}-2-phosphonoamino-propionic acid]

More lines, now with the values behind:

Row | Structure (SMILES) | pIC50 [1] | pIC50 [2]
4 | N=C(N)c1ccc(C2=NOC(CC(=O)NCCC(=O)O)C2)cc1 (centres undefined) | 6.25 | –
5 | CC(C)OP(=O)(NC(CNC(=O)CC1CC(c2ccc(C(=N)N)cc2)=NO1)C(=O)O)OC(C)C (centres undefined) [3-{2-[3-(4-Carbamimidoyl-phenyl)-4,5-dihydro-isoxazol-5-yl]-acetylamino}-2-(diisopropoxy-phosphorylamino)-propionic acid] | 6.68 | 6.99
6 | CCCCOP(=O)(NC(CNC(=O)CC1CC(c2ccc(C(=N)N)cc2)=NO1)C(=O)O)OCCCC (centres undefined) [3-{2-[3-(4-Carbamimidoyl-phenyl)-4,5-dihydro-isoxazol-5-yl]-acetylamino}-2-(dibutoxy-phosphorylamino)-propionic acid] | 6.66 | 6.94
7 | COP(=O)(NC(CNC(=O)CC1CC(c2ccc(C(=N)N)cc2)=NO1)C(=O)O)OC (centres undefined) [3-{2-[3-(4-Carbamimidoyl-phenyl)-4,5-dihydro-isoxazol-5-yl]-acetylamino}-2-(dimethoxy-phosphorylamino)-propionic acid] | 6.71 | 6.98
8 | C=CCOP(=O)(NC(CNC(=O)CC1CC(c2ccc(C(=N)N)cc2)=NO1)C(=O)O)OCC=C (centres undefined) [2-(Bis-allyloxy-phosphorylamino)-3-{2-[3-(4-carbamimidoyl-phenyl)-4,5-dihydro-isoxazol-5-yl]-acetylamino}-propionic acid] | 6.65 | 6.91
